Values after ≈ are worked out from the molar mass of the structure shown.
Assay: Solubility of Compound A in several test solutions
Type: physicochemical
Excerpt: Compound A was used as an insoluble active ingredient in the following references and examples.

solubility at 3 h (Water, 3 hours, final pH 5.81): 0.00556 mg/mL (≈ 12.6 µM)
solubility at 6 h (Water, 6 hours, final pH 5.81): 0.00593 mg/mL (≈ 13.4 µM)
solubility at 3 h (jp-2 solution, JP-2 Sol., 3 hours, final pH 6.84): 0.0811 mg/mL (≈ 184 µM)
solubility at 6 h (jp-2 solution, JP-2 Sol., 6 hours, final pH 6.84): 0.0817 mg/mL (≈ 185 µM)
solubility at 3 h (ph 6.0 test solution, pH6.0, 3 hours, final pH 6.08): 0.0152 mg/mL (≈ 34.4 µM)
solubility at 6 h (ph 6.0 test solution, pH6.0, 6 hours, final pH 6.08): 0.0156 mg/mL (≈ 35.3 µM)
solubility at 3 h (ph 7.8 test solution, pH7.8, 3 hours, final pH 7.6): 0.488 mg/mL (≈ 1100 µM)
solubility at 6 h (ph 7.8 test solution, pH7.8, 6 hours, final pH 7.6): 0.489 mg/mL (≈ 1110 µM)
solubility at 3 h (ph 8.0 test solution, pH8.0, 3 hours, final pH 7.76): 0.653 mg/mL (≈ 1480 µM)
solubility at 6 h (ph 8.0 test solution, pH8.0, 6 hours, final pH 7.76): 0.676 mg/mL (≈ 1530 µM)
solubility at 3 h (ph 8.5 test solution, pH8.5, 3 hours, final pH 8.29): 6.2 mg/mL (≈ 14000 µM)
solubility at 6 h (ph 8.5 test solution, pH8.5, 6 hours, final pH 8.29): 6.22 mg/mL (≈ 14100 µM)
Compound: CC1(C)[C@H]2C[C@H](C/C=C\CCCC(=O)O)[C@@H](NC(=O)c3csc4ccc(O)cc34)[C@@H]1C2 [Compound A, (Z)-7-[(1R,2R,3S,5S)-2-(5-hydroxybenzo[b]thiophen-3-ylcarbonylamino)-10-norpinan-3-yl]-5-heptenoic acid]

From patent publication EP1266655A1, “ENTERIC GRANULAR PREPARATIONS OF HARDLY WATER SOLUBLE DRUGS CHARACTERIZED BY CONTAINING WATER-REPELLENT COMPONENT” (SHIONOGI & CO., LTD., priority 2000, dated 2001)
